Assay [1] concerns the target TRAF2 and NCK-interacting protein kinase (Homo sapiens, UniProt Q9UKE5). The assay can be described thus: Inhibition of human recombinant TNIK (1 to 367 residues) using RLGRDKYKTLRQIRQ as substrate incubated for 40 mins in presence of Mg/ATP mix by [gamma p33]-ATP based radiometric scintillation counting method.
The test system of assay [2] is HCT-116. Nature of the assay: Antiproliferative activity against human HCT-116 cells assessed as inhibition of cell proliferation incubated for 72 hrs by MTT assay. The conditions noted are these: HCT-116, 72 h. It counts as functional, cell-based.
For assay [3], the target named is Vascular endothelial growth factor receptor 2 (Homo sapiens) (UniProt P35968). Nature of the assay: Inhibition of recombinant human KDR (790 to end residues) using myelin basic protein as substrate incubated for 40 mins in presence of [gamma-33P]-ATP by radiometric based scintillation counter assay.
Chain of Vascular endothelial growth factor receptor 2 (Homo sapiens) (P35968 whole entry): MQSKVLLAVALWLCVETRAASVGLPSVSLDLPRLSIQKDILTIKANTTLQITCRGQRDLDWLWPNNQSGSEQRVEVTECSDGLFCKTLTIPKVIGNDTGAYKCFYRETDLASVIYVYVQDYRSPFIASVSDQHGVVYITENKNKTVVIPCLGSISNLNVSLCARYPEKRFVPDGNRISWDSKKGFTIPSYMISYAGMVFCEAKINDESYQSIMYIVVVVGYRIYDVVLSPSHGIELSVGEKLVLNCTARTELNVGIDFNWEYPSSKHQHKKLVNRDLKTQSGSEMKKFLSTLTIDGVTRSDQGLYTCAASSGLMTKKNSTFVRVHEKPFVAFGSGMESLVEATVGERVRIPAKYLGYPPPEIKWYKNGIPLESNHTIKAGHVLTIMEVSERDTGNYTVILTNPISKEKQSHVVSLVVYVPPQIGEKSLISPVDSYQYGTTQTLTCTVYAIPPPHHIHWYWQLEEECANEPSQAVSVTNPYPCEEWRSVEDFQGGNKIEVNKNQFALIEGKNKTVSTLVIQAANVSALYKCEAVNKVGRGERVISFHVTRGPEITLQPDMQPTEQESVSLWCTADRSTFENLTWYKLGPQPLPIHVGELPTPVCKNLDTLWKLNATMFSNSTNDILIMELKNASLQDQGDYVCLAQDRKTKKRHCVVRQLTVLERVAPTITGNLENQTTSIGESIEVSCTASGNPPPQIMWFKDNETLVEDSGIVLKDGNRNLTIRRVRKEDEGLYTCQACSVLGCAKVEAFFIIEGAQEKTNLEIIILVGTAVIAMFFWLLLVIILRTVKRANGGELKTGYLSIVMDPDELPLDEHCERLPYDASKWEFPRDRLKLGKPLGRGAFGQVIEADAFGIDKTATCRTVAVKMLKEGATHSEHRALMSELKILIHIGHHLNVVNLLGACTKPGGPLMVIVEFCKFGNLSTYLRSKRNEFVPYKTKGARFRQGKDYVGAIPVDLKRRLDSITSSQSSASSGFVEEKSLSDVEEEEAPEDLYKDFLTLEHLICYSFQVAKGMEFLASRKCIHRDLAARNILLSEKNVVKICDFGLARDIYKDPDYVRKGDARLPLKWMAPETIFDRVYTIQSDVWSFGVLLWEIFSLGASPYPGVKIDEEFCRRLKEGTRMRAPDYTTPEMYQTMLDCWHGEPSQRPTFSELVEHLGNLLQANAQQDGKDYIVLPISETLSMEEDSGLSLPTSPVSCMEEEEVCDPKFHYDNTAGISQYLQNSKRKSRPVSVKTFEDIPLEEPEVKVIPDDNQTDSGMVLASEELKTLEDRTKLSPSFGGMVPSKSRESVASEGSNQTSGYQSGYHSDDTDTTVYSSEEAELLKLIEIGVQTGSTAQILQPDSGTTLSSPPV
Assay [4] concerns the target Vascular endothelial growth factor receptor 3 (Homo sapiens) (UniProt P35916). The assay can be described thus: Inhibition of human recombinant FLT4 (800 to end residues) using GGEEEEYFELVKKKK as substrate incubated for 40 mins in presence of [gamma-33P]-ATP by radiometric based scintillation counter assay.
For assay [5], the system named is HCT-116. Nature of the assay: Inhibition of colony formation in human HCT-116 cells assessed as inhibition of cell proliferation at 1.25 to 5 uM incubated for 14 days by crystal violet staining based microscopic analysis. The format is functional. The conditions noted are these: dose 1.25-5 µM, time 14.0 day, DDE = dose-dependent effect.
The test system of assay [6] is HCT-116. The assay can be described thus: Inhibition of cell migration in human HCT-116 cells at 1 uM incubated for 24 to 48 hrs by wound-closure assay. It counts as functional, cell-based. The conditions noted are these: time 24-48 hrs.
Assay [7] has as its system HCT-116. Nature of the assay: Downregulation of nuclear beta-catenin protein expression in human HCT-116 cells at 10 to 40 uM incubated for 48 hrs by western blot analysis. The following applies: dose 10-40 µM, DDE = dose-dependent effect. The format is functional, cell-based.
Assay [8] deals with HCT-116. Nature of the assay: Downregulation of nuclear TCF-4 protein expression in human HCT-116 cells at 10 to 40 uM incubated for 48 hrs by western blot analysis. It counts as functional, cell-based. The following applies: dose 10-40 µM, DDE = dose-dependent effect.
In assay [9] the test system is HCT-116. Nature of the assay: Downregulation of Axin2 protein expression in human HCT-116 cells at 10 to 40 uM incubated for 48 hrs by western blot analysis. It counts as functional, cell-based. The following applies: dose 10-40 µM.
For assay [10], the system named is HCT-116. The assay can be described thus: Downregulation of c-Myc protein expression in human HCT-116 cells at 10 to 40 uM incubated for 48 hrs by western blot analysis. The conditions noted are these: dose 10-40 µM. The format is functional, cell-based.

pIC50: −log10 of the molar value. Active and inactive are the calls of the source. The rule behind the calls is not given here. A value given as a limit tells only on which side of the number the result lay.

Chain of TRAF2 and NCK-interacting protein kinase (Q9UKE5 whole entry, the tested form may be a part): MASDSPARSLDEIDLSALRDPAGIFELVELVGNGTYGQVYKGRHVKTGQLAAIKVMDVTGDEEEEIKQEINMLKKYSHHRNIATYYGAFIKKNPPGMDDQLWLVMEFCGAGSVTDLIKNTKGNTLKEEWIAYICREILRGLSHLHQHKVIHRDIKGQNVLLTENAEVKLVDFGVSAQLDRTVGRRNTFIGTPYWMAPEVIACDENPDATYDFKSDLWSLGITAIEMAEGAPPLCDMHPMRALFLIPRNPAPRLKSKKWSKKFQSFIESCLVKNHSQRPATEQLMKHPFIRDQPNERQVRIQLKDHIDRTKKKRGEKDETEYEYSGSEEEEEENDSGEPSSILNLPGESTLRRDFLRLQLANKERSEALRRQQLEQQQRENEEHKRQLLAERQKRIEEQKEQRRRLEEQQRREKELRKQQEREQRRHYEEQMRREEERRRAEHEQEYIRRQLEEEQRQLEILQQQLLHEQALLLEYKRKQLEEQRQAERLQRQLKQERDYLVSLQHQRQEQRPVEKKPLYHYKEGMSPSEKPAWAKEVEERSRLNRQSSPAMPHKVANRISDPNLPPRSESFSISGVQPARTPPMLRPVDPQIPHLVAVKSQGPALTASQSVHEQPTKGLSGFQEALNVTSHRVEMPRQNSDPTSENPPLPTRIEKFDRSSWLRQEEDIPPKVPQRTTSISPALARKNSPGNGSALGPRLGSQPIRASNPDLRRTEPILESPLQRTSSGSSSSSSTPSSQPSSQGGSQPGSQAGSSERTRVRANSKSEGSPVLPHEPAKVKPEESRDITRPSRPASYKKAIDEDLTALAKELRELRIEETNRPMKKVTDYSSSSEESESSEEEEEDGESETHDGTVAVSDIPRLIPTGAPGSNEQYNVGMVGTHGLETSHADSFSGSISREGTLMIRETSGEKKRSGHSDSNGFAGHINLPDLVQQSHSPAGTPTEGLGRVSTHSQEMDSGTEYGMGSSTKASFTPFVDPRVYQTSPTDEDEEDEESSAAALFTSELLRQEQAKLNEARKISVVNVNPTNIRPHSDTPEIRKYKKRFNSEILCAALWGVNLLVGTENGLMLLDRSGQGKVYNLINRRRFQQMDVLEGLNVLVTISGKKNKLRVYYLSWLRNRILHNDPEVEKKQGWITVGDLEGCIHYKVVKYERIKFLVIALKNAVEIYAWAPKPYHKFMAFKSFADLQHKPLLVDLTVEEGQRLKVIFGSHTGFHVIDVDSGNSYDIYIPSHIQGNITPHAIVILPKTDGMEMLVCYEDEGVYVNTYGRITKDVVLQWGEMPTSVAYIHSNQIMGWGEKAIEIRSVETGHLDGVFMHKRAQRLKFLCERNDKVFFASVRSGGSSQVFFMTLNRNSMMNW
Chain of Vascular endothelial growth factor receptor 3 (Homo sapiens) (P35916 whole entry): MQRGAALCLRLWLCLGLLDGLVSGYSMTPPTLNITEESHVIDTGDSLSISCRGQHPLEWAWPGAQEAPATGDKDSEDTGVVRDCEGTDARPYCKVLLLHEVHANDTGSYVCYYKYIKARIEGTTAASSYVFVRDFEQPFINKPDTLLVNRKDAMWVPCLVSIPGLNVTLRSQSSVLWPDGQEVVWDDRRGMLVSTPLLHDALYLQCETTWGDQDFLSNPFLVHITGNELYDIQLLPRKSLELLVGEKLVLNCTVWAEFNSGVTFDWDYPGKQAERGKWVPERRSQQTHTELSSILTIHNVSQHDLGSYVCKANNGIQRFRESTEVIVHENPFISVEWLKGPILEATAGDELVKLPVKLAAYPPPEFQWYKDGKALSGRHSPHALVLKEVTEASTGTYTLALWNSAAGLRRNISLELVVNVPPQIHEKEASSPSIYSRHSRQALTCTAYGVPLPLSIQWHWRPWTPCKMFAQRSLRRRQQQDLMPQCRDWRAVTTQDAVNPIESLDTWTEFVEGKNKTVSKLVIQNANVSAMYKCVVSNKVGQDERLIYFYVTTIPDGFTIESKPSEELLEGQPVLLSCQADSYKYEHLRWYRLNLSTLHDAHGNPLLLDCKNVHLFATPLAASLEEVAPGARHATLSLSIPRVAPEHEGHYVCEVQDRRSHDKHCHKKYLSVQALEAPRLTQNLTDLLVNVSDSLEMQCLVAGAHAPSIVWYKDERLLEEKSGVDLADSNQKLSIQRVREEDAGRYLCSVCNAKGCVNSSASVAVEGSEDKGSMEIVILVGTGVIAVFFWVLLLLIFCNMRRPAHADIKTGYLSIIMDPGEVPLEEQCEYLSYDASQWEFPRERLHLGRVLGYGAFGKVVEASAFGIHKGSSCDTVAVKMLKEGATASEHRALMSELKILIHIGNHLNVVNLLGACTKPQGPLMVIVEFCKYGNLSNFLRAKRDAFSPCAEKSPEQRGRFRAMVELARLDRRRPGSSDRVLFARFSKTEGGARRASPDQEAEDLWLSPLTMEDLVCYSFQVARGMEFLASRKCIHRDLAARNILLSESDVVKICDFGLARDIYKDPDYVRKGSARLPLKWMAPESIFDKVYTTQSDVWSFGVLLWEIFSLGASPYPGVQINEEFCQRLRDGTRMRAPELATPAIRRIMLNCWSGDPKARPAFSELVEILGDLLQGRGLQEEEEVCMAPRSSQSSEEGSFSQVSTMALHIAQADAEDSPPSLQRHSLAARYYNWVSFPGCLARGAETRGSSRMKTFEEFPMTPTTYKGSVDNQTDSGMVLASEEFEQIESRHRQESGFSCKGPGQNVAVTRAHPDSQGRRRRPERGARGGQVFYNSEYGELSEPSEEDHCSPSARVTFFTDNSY

Regarding `O=c1oc2cc(-c3cnc4ncccn34)ccc2n1Cc1ccc(F)cc1`, the pIC50 in [1] was below 5.00.

For the molecule `O=c1oc2cc(-c3ccc4nncn4c3)ccc2n1Cc1ccc(F)cc1`, the pIC50 in [1] was below 5.00.

As to `O=c1oc2cc(-c3cnc4cccnn34)ccc2n1Cc1ccc(F)cc1`, the pIC50 in [1] is below 5.00.

Turning to `Cc1cccc(Cn2c(=O)oc3cc(-c4cnc5[nH]ccc5c4)ccc32)c1`, the pIC50 was 6.45 in assay [1] and 5.29 in the assay on HCT-116 [2].

For `O=c1oc2cc(-c3cnc4[nH]ccc4c3)ccc2n1Cc1ccc(F)cc1`, the pIC50 is 6.96 in assay [1] and 5.22 with HCT-116 [2].

With `COc1cccc(Cn2c(=O)oc3cc(-c4ccc5c(c4)CCN5)ccc32)c1`, the pIC50 in assay [1] was 6.58; in the assay with HCT-116 [2], below 4.00.

As for `O=c1oc2cc(-c3cnc4[nH]ccc4c3)ccc2n1Cc1cccc(F)c1`, the pIC50 is 7.05 in [1] and 5.23 in the assay with HCT-116 [2].

For `O=c1oc2cc(-c3cnc4cnccn34)ccc2n1Cc1ccc(F)cc1`, the pIC50 in [1] is below 5.00.

As for `O[C@H]1CC[C@@H](Oc2cccc3cnc(Nc4ccc5nc[nH]c5c4)nc23)CC1`, in the assay on HCT-116 [2], the pIC50 is 6.39.

For `N#Cc1cccc(Cn2c(=O)oc3cc(-c4cnc5[nH]ccc5c4)ccc32)c1`, the pIC50 in [1] was below 5.00.

Turning to `O=c1oc2cc(-c3ccc4[nH]ccc4c3)ccc2n1Cc1ccc(F)cc1`, in assay [1], the pIC50 is 5.90.

In the case of `COc1cc(Cn2c(=O)oc3cc(-c4cnc5[nH]ccc5c4)ccc32)ccc1F`, the pIC50 was 6.14 in assay [1] and 5.09 in the assay on HCT-116 [2].

As for `COc1cccc(Cn2c(=O)oc3cc(-c4ccc(N)nc4)ccc32)c1`, the pIC50 in [1] is 6.39; with HCT-116 [2], 5.13.

As to `COc1cccc(Cn2c(=O)oc3cc(-c4cccnc4)ccc32)c1`, in [1], the negative-log IC50 (pIC50) is 5.40.

Turning to `O=c1oc2cc(-c3ccc4scnc4c3)ccc2n1Cc1ccc(F)cc1`, in [1], the pIC50 was below 5.00.

As to `COc1cccc(Cn2c(=O)oc3cc(-c4cnc5[nH]ccc5n4)ccc32)c1`, the pIC50 in assay [1] was 5.40.

Regarding `O=c1oc2cc(-c3cnc4[nH]ccc4c3)ccc2n1Cc1ccccc1F`, the pIC50 in assay [1] was 5.98.

Consider `O=c1oc2cc(-c3cnc4[nH]ccc4c3)ccc2n1Cc1cccc(OC(F)F)c1`, for which the pIC50 in assay [1] was 5.76.

Consider `O=c1oc2cc(-c3cnc4ccnn4c3)ccc2n1Cc1ccc(F)cc1`, for which, in assay [1], the negative-log IC50 (pIC50) is below 5.00.

As for `O=c1oc2cc(-c3ccnc4[nH]ncc34)ccc2n1Cc1ccc(F)cc1`, the pIC50 in assay [1] was 6.04; in the assay with HCT-116 [2], below 4.00.

For the molecule `O=c1oc2cc(-c3ccn4ncnc4c3)ccc2n1Cc1ccc(F)cc1`, the pIC50 in assay [1] is 5.35.

On to `COc1cccc(Cn2c(=O)oc3cc(-c4ccc5[nH]c(C(=O)NC6CC6)cc5c4)ccc32)c1`, for which the negative logarithm of the IC50 (pIC50) in [1] was below 5.00.

As to `O=c1oc2cc(-c3cnc4[nH]ccc4c3)ccc2n1Cc1cccc(OC(F)(F)F)c1`, the pIC50 in [1] was 6.54; with HCT-116 [2] it was 5.15.

As for `Nc1ncnn2c(-c3ccc4c(c3)oc(=O)n4Cc3ccc(F)cc3)ccc12`, the pIC50 in [1] was 6.18; with HCT-116 [2], below 4.00.

`COc1cccc(Cn2c(=O)oc3cc(-c4ccnc5[nH]ccc45)ccc32)c1`: the pIC50 in assay [1] is 5.05.

Regarding `COc1cccc(Cn2c(=O)oc3cc(-c4ccc5[nH]cc(C(=O)NC6CC6)c5c4)ccc32)c1`, in assay [1], the pIC50 was below 5.00.

Regarding `Nc1ccc(-c2ccc3c(c2)oc(=O)n3Cc2ccc(F)cc2)cn1`, the pIC50 was 6.63 in assay [1] and 4.78 with HCT-116 [2].

Take `COc1cccc(Cn2c(=O)oc3cc(-c4cnc5cc[nH]c5c4)ccc32)c1`: in [1], the pIC50 was below 5.00.

On to `COc1cccc(Cn2c(=O)oc3cc(-c4cncnc4)ccc32)c1`, for which the pIC50 in assay [1] is 5.25.

For the molecule `COc1cc(-c2ccc3c(c2)oc(=O)n3Cc2ccc(F)cc2)cnc1N`, the pIC50 in [1] is 6.21; in the assay on HCT-116 [2], 4.44.

With `O=c1oc2cc(-c3cnc4[nH]ccc4c3)ccc2n1Cc1cccc(C(F)(F)F)c1`, the pIC50 in assay [1] was 5.55.

Turning to `COc1cccc(Cn2c(=O)oc3cc(-c4cnc(C#N)c(C)c4)ccc32)c1`, the pIC50 in assay [1] was below 5.00.

Take `O=c1cnc2cc(-c3ccc4c(c3)oc(=O)n4Cc3ccc(F)cc3)ccc2[nH]1`: the pIC50 in [1] is below 5.00.

Consider `COc1cccc(Cn2c(=O)oc3cc(-c4ccc5[nH]ccc5c4)ccc32)c1`, for which, in [1], the negative-log IC50 (pIC50) was 5.93.

`N#Cc1cc(-c2ccc3c(c2)oc(=O)n3Cc2ccc(F)cc2)cnc1N`: the values for the pIC50 (in [1]; with HCT-116 [2]) were 6.81 and 5.08, respectively.

Turning to `O=c1oc2cc(-c3c[nH]c4ncccc34)ccc2n1Cc1ccc(F)cc1`, the pIC50 in [1] is 6.64; with HCT-116 [2], 4.93.

Turning to `O=c1oc2cc(-c3cnc4[nH]ccc4n3)ccc2n1Cc1ccc(F)cc1`, the pIC50 in assay [1] was 5.39.

In the case of `COc1cccc(Cn2c(=O)oc3cc(-c4cnc5[nH]ccc5c4)ccc32)c1`, the pIC50 in [1] is 7.30; in the assay on HCT-116 [2], 5.30. For the same molecule, the inhibition is above 80% in assay [3], above 80% in assay [4] and “Dde” in the assay on HCT-116 [5]. Further, the inhibition result with HCT-116 [6] was “Active”. For the same molecule, the Activity entry with HCT-116 [7] and with HCT-116 [8] was “Dde” each time. The outcome in the assay with HCT-116 [9] and in the assay on HCT-116 [10] was Active.

Turning to `O=c1oc2cc(-c3ccc4ncnn4c3)ccc2n1Cc1ccc(F)cc1`, the pIC50 in assay [1] was 5.61.

Values taken from ChEMBL document CHEMBL5143674, “Discovery of benzo[d]oxazol-2(3H)-one derivatives as a new class of TNIK inhibitors for the treatment of colorectal cancer” (Bioorg Med Chem Lett, 2022).
